Data reported in patent US20160115189A1, “PARASITICIDAL COMPOUNDS, METHODS, AND FORMULATIONS” (ELI LILLY AND COMPANY, priority 2013, published 2016).

Assays:
[1] = system: adult brown tick (Rhipicephalus sanguineus); assay: Assay 5: adult brown tick infestations on dogs; assay type: in vivo, Rhipicephalus sanguineus on beagle dogs; conditions: 10 mg/kg topical spot-on
Protocol: (§1) The total number of live parasites present on each dog is determined for each interval, and this number is transformed using the natural logarithm transformation plus one (Ln count+1); addition of one to each count served to adjust for counts that are zero. Geometric mean (GM) group tick and flea counts are obtained via back-transformation of group mean transformed counts and subtracting one. The negative control group is used for comparison to treated groups for the calculation of percent efficacy (% reduction in live parasite counts). GM percent efficacy of treatments is calculated using the following formula: […]
The therapeutic (knockdown) and residual efficacy of the Example 1-4 compounds, when administered via topical spot-on at 10 mg/kg, is evaluated against adult brown tick (Rhipicephalus sanguine us) infestations on dogs. Twenty (20) beagle dogs are allocated to either an untreated, negative control group or one of four treated groups (n=4 dogs per group). Dogs are infested with approximately 50 unfed, adult R. sanguineus ticks on Days −1, 5, 12, 19 and 28. On Day 0, dogs are treated with Example 1-4 compound formulations (each, 50 mg/ml of technical active dissolved in a vehicle solution of propylene carbonate, benzyl alcohol, and isopropyl myristate), applied via topical spot-on in a volume so as to achieve a point dose of 10 mg/kg. Tick counts and classification are conducted on Days 2, 7, 14, 21 and 30. GM percent efficacy of treatments against ticks is calculated using the formula in Assay 3.

[2] = system: Rhipicephalus sanguineus (Brown dog tick); assay: Assay 4: adult brown dog tick infestations on dogs, descending doses; assay type: in vivo, Rhipicephalus sanguineus on beagle dogs
Protocol: as §1
(§2) The therapeutic (knockdown) and residual efficacy of the Example 1 compound, administered via topical spot-on at descending point doses of 30, 20 and 10 mg/kg, is evaluated against adult tick (Dermacentor variabilis (American dog tick) and Rhipicephalus sanguineus (Brown dog tick)) infestations on dogs. Twenty-four (24) beagle dogs are allocated to either an untreated, negative control group or one of three treated groups (n=6 dogs per group). Dogs are infested with approximately 50 unfed, adult R. sanguineus ticks on Days −1, 5, 12, 19 and 28; dogs are concurrently infested with D. variabilis ticks on Day 12 and Day 28. On Day 0, dogs are treated with the Example 1 compound (50 mg/ml of technical active dissolved in a vehicle solution of propylene carbonate, benzyl alcohol, and isopropyl myristate), applied via topical spot-on in a volume so as to achieve point doses of 30, 20 and 10 mg/kg. Tick counts and classification are conducted on Days 3, 7, 14, 21 and 30. GM percent efficacy of treatments against both tick species is calculated using the formula in Assay 3.

[3] = Assay 3: tolerability in dogs; assay type: in vivo, beagle dogs; conditions: topical spot-on 30 mg/kg
[4] = system: cat flea (Ctenocephalides felis); assay: Assay 3: cat flea infestations on dogs; assay type: in vivo, Ctenocephalides felis on beagle dogs; conditions: for % Efficacy (GM) / Geometric Mean Group Live Parasite Counts: topical spot-on 30 mg/kg
Protocol: (§3) The therapeutic (knockdown) and residual efficacy of the Example 1 compound, administered topically at a point dose of 30 mg/kg bodyweight, is evaluated against adult brown dog tick (Rhipicephalus sanguineus) and cat flea (Ctenocephalides felis) infestations on dogs. Based on pre-treatment tick retention rates, eight (8) beagle dogs are allocated to one of two treatment groups (n=4 per group): Untreated control group, and Example 1 compound-treated group. Dogs are infested with approximately 50 unfed, adult ticks one day prior to treatment (approximately 50% male and 50% female ticks). On Day 0, dogs are treated with Example 1 compound (50 mg/ml, dissolved in a vehicle solution of propylene carbonate, benzyl alcohol, and isopropyl myristate), applied via topical spot-on to achieve a point dose of 30 mg/kg. On Day 3 (approximately 72 hours after treatment), ticks are counted and removed from all dogs. To evaluate residual activity, dogs are re-infested with ticks on an approximate weekly basis for at least two weeks and up to 4 weeks, with tick counts (and removal) conducted 48 hours after each infestation. Dogs are infested with approximately 100 unfed, adult fleas at weeks 2 and 3 for both groups, concurrently with tick infestation.
as §1

[5] = system: Dermacentor variabilis (American dog tick); assay: Assay 4: adult American dog tick infestations on dogs, descending doses; assay type: in vivo, Dermacentor variabilis on beagle dogs
Protocol: as §1, §2

[6] = Assay 4: tolerability in dogs; assay type: in vivo, beagle dogs; conditions: topical spot-on 30, 20 and 10 mg/kg
[7] = system: adult brown dog tick (Rhipicephalus sanguineus); assay: Assay 3: adult brown dog tick infestations on dogs; assay type: in vivo, Rhipicephalus sanguineus on beagle dogs; conditions: for % Efficacy (GM) / Geometric Mean Group Live Parasite Counts: topical spot-on 30 mg/kg
Protocol: as §3, §1

[8] = 10 mg/kg topical spot-on, Day 3, Rs
[9] = 10 mg/kg topical spot-on, Day 7, Rs
[10] = 10 mg/kg topical spot-on, Day 14, Rs
[11] = 10 mg/kg topical spot-on, Day 21, Rs
[12] = 10 mg/kg topical spot-on, Day 30, Rs
[13] = 20 mg/kg topical spot-on, Day 3, Rs
[14] = 20 mg/kg topical spot-on, Day 7, Rs
[15] = 20 mg/kg topical spot-on, Day 14, Rs
[16] = 20 mg/kg topical spot-on, Day 21, Rs
[17] = 20 mg/kg topical spot-on, Day 30, Rs
[18] = 30 mg/kg topical spot-on, Day 3, Rs
[19] = 30 mg/kg topical spot-on, Day 7, Rs
[20] = 30 mg/kg topical spot-on, Day 14, Rs
[21] = 30 mg/kg topical spot-on, Day 21, Rs
[22] = 30 mg/kg topical spot-on, Day 30, Rs
[23] = topical 30 mg/kg, through week 4
[24] = 10 mg/kg topical spot-on, Day 14, Dv
[25] = 10 mg/kg topical spot-on, Day 30, Dv
[26] = 20 mg/kg topical spot-on, Day 14, Dv
[27] = 20 mg/kg topical spot-on, Day 30, Dv
[28] = 30 mg/kg topical spot-on, Day 14, Dv
[29] = 30 mg/kg topical spot-on, Day 30, Dv

Compound: CC[C@H]1CCC[C@H](NC(=O)c2ccco2)[C@@H](C)C(=O)C2=C[C@@H]3[C@@H](C=C[C@@H]4C[C@@H](O[C@@H]5O[C@@H](C)[C@H](OC)C(OC)[C@H]5OC)C[C@@H]34)[C@@H]2CC(=O)O1 (stereo partly drawn) [Example 1, N-((2R,3aS,5aR,5bS,9S,13S,14R,16aS,16bR)-9-ethyl-14-methyl-7,15-dioxo-2-(((2R,3R,5S,6S)-3,4,5-trimethoxy-6-methyltetrahydro-2H-pyran-2-yl)oxy)-2,3,3a,5a,5 b,6,7,9,10,11,12,13,14,15,16a,16b-hexadecahydro-1H-as-indaceno[3,2-d][1]oxacyclododecin-13-yl)furan-2-carboxamide]
- GM percent efficacy ([1]; Day 2, R. sanguineus): (68.16)
- Geometric Mean Group Live Tick Counts ([1]; Day 2, R. sanguineus): 10.03
- GM percent efficacy ([1]; Day 7, R. sanguineus): (100)
- Geometric Mean Group Live Tick Counts ([1]; Day 7, R. sanguineus): 0.00
- GM percent efficacy ([1]; Day 14, R. sanguineus): (97.41)
- Geometric Mean Group Live Tick Counts ([1]; Day 14, R. sanguineus): 0.57
- GM percent efficacy ([1]; Day 21, R. sanguineus): (95.27)
- Geometric Mean Group Live Tick Counts ([1]; Day 21, R. sanguineus): 1.59
- GM percent efficacy ([1]; Day 30, R. sanguineus): (67.97)
- Geometric Mean Group Live Tick Counts ([1]; Day 30, R. sanguineus): 8.40
- % Efficacy (GM) [2, 8]: (73.39) %
- Geometric Mean Group Live Tick Counts [2, 8]: 4.92
- % Efficacy (GM) [2, 9]: (100) %
- Geometric Mean Group Live Tick Counts [2, 9]: 0.00
- % Efficacy (GM) [2, 10]: (97.59) %
- Geometric Mean Group Live Tick Counts [2, 10]: 0.70
- % Efficacy (GM) [2, 11]: (96.14) %
- Geometric Mean Group Live Tick Counts [2, 11]: 0.70
- % Efficacy (GM) [2, 12]: (90.64) %
- Geometric Mean Group Live Tick Counts [2, 12]: 1.18
- % Efficacy (GM) [2, 13]: (84.80) %
- Geometric Mean Group Live Tick Counts [2, 13]: 2.81
- % Efficacy (GM) [2, 14]: (100) %
- Geometric Mean Group Live Tick Counts [2, 14]: 0.00
- % Efficacy (GM) [2, 15]: (99.58) %
- Geometric Mean Group Live Tick Counts [2, 15]: 0.12
- % Efficacy (GM) [2, 16]: (99.32) %
- Geometric Mean Group Live Tick Counts [2, 16]: 0.12
- % Efficacy (GM) [2, 17]: (94.12) %
- Geometric Mean Group Live Tick Counts [2, 17]: 0.74
- % Efficacy (GM) [2, 18]: (79.13) %
- Geometric Mean Group Live Tick Counts [2, 18]: 3.86
- % Efficacy (GM) [2, 19]: (98.92) %
- Geometric Mean Group Live Tick Counts [2, 19]: 0.12
- % Efficacy (GM) [2, 20]: (99.10) %
- Geometric Mean Group Live Tick Counts [2, 20]: 0.26
- % Efficacy (GM) [2, 21]: (97.55) %
- Geometric Mean Group Live Tick Counts [2, 21]: 0.44
- % Efficacy (GM) [2, 22]: (95.94) %
- Geometric Mean Group Live Tick Counts [2, 22]: 0.51
- Therapeutic (knockdown) efficacy ([2]; Day 3, treatments 30, 20 and 10 mg/kg): 73-85%
- Residual efficacy against R. sanguineus ([2]; through Day 21, all treatments (30, 20, 10 mg/kg)): > 95%
- Residual efficacy against R. sanguineus ([2]; through Day 30, 30 mg/kg dose): > 95%
- tolerability of treatment [3]: well tolerated
- residual efficacy against fleas [4, 23]: > 90%
- % Efficacy (GM) ([4]; Week 2, Flea): (91.73) %
- Geometric Mean Group Live Parasite Counts ([4]; Week 2, Flea): 7.15
- % Efficacy (GM) ([4]; Week 3, Flea): (91.64) %
- Geometric Mean Group Live Parasite Counts ([4]; Week 3, Flea): 7.21
- % Efficacy (GM) [5, 24]: (99.49) %
- Geometric Mean Group Live Tick Counts [5, 24]: 0.12
- % Efficacy (GM) [5, 25]: (95.30) %
- Geometric Mean Group Live Tick Counts [5, 25]: 1.60
- % Efficacy (GM) [5, 26]: (97.87) %
- Geometric Mean Group Live Tick Counts [5, 26]: 0.51
- % Efficacy (GM) [5, 27]: (97.34) %
- Geometric Mean Group Live Tick Counts [5, 27]: 0.91
- % Efficacy (GM) [5, 28]: (98.06) %
- Geometric Mean Group Live Tick Counts [5, 28]: 0.47
- % Efficacy (GM) [5, 29]: (97.95) %
- Geometric Mean Group Live Tick Counts [5, 29]: 0.70
- Residual efficacy against D. variabilis ticks ([5]; all doses, both Day 14 and Day 30 intervals): > 95%
- tolerability of treatment [6]: well tolerated
- residual efficacy against ticks [7, 23]: > 90%
- % Efficacy (GM) ([7]; Day 3, Tick): (87.42) %
- Geometric Mean Group Live Parasite Counts ([7]; Day 3, Tick): 3.95
- % Efficacy (GM) ([7]; Week 1, Tick): (99.44) %
- Geometric Mean Group Live Parasite Counts ([7]; Week 1, Tick): 0.19
- % Efficacy (GM) ([7]; Week 2, Tick): (100) %
- Geometric Mean Group Live Parasite Counts ([7]; Week 2, Tick): 0.00
- % Efficacy (GM) ([7]; Week 3, Tick): (100) %
- Geometric Mean Group Live Parasite Counts ([7]; Week 3, Tick): 0.00
- % Efficacy (GM) ([7]; Week 4, Tick): (100) %
- Geometric Mean Group Live Parasite Counts ([7]; Week 4, Tick): 0.00
